Source: US20250152719A1, “FUSED IMIDE DERIVATIVE” (Chia Tai Tianqing Pharmaceutical Group Co., Ltd., priority 2021, published 2025)
pIC50: −log10 of the molar value. Where two headings read alike, the source gives them in different places.

How the values were obtained:
[1] = In vitro liver microsomal stability, human; format: in vitro ADME; conditions: 0.5 mg/mL microsomes, NADPH, 37° C., 1 h
Protocol: (§1) Liver microsome incubation samples were prepared by mixing a PBS buffer (pH 7.4), a liver microsome solution (0.5 mg/mL), a test compound, and an NADPH+MgCl2 solution and incubated at 37° C. and 300 rpm for 1 h. Zero-hour samples were prepared by mixing a PBS buffer (pH 7.4), a liver microsome solution (0.5 mg/mL), and a test compound. An acetonitrile solution containing an internal standard was added to the samples, and supernatants were prepared by protein precipitation, diluted, and then assayed by LC/MS/MS.

[2] = test system: OCI-LY10-BTK(C481S) cells; assay: Inhibitory activity on OCI-LY10-BTK(C481S) cell proliferation (CCK-8); format: cell-based; conditions: 72 h incubation, IC50 per method, unit inferred
Protocol: OCI-LY10(C481S) cells in the logarithmic growth phase were collected and added to a centrifuge tube, adjusted to a cell density of 5×10^4 cells/mL, and seeded in a 96-well plate (100 μL/well). Meanwhile, compounds were added using a nanoliter pipettor such that the final concentrations of the compounds were 5000 nM-0.31 nM; the addition was performed in duplicate, and meanwhile, a control was set. After another 72 h of incubation in the cell incubator, the detection reagent CCK-8 (manufacturer: Dojindo Laboratories, Beijing; 10 μL/well) was added. After 3 h of incubation in the cell incubator, absorbance values were detected at 450 nm using a PerkinElmer Envision microplate reader, the four-parameter analysis was performed, the dose-response curves were fit, and IC50 was calculated.

Mouse pharmacokinetics = format: in vivo, ICR mice
Protocol: ICR mice weighing 18-22 g were randomized into groups of 9 after 3-5 days of acclimatization and then intragastrically given the test compound solution at a dose of 10 mg/kg. Plasma samples to be tested were prepared by taking blood from the orbit at time points of 15 min, 30 min, 1 h, 2 h, 3 h, 4 h, 6 h, 8 h, 10 h, and 24 h. 20 μL of each plasma sample to be detected and a standard curve sample were taken, and an acetonitrile solution containing an internal standard was added. […] Pharmacokinetic parameters were fitted using a non-compartmental model (see Table 5).

[3] = In vitro liver microsomal stability, mouse; conditions: 0.5 mg/mL microsomes, NADPH, 37° C., 1 h
Protocol: as §1

TMD8-BTK(C481S) cells = assay: Inhibitory activity on TMD8-BTK(C481S) cell proliferation (CCK-8); format: cell-based; conditions: 72 h, 72 h incubation
In short: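 Cells seeded at 8×10^4 cells/mL, incubated overnight, then treated in duplicate with compounds at 5000 nM-0.31 nM for 72 h. Viability by CCK-8 (4 h, absorbance 450 nm); IC50 from four-parameter dose-response fits.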

TMD-8 xenograft tumors = assay: In vivo drug efficacy, TMD-8 mouse subcutaneous xenograft tumors; parameters: species or system NOD-SCID mice; conditions: 30 mg/kg, qd, i.g.
Protocol: TMD-8 mouse subcutaneous xenograft tumors: TMD-8 (WT) cells at a concentration of 1×10^8/mL were inoculated under aseptic conditions into the right side armpit of NOD-SCID mice at 0.1 mL/mouse. After subcutaneous grafting, the animals were divided into groups with 6 animals in each group when the tumor volume reached about 188 mm^3 (or 200 mm^3):
model group: vehicle, 6 mice; compound administration groups: 30 mg/kg, qd, i.g., 6 mice.
The vehicle or the test compound was intragastrically given at a volume of 4 mL/kg, once daily for 16 consecutive days. The tumor volume was measured 2-3 times a week, and meanwhile, the mice were weighed and the data were recorded; the general behaviors of the animals were observed every day. After all dosing was complete, the animals were sacrificed on day 17, and the tumors were removed and weighed.
The tumor volume and the tumor growth inhibition were calculated using the following formulae:
Tumor volume (TV)=(Length×Width^2)/2.
Tumor growth inhibition (TGI)=(1−tumor weight of treatment group/tumor weight of model group)×100%.

[4] = ICR, mouse, plasma, iv, 1 mg/kg, Mouse i.v. 1 mpk
[5] = ICR, mouse, plasma, iv, 1 mg/kg, Mouse i.v. 1 mpk, read-out: AUC
[6] = ICR, mouse, plasma, po, 10 mg/kg, Mouse i.g. 10 mpk
[7] = ICR, mouse, plasma, po, 10 mg/kg, Mouse i.g. 10 mpk, read-out: AUC
[8] = ICR, mouse, plasma, po, 10 mg/kg, Mouse i.g. 10 mpk, read-out: Cmax

Row | SMILES | Human liver microsome Residuals at 60 min [1] [%] | clearance (Mouse pharmacokinetics; [4]) [mL/min/kg] | half-life (Mouse pharmacokinetics; [4]) [h] | AUC (Mouse pharmacokinetics; [5]) [ng·h/mL] | half-life (Mouse pharmacokinetics; [6]) [h] | AUC (Mouse pharmacokinetics; [7]) [ng·h/mL] | Cmax (Mouse pharmacokinetics; [8]) [ng/mL] | F (Mouse pharmacokinetics; Mouse i.g. 10 mpk) [%] | Mouse liver microsome Residuals at 60 min [3] [%] | further results
1 | CN1CCN([C@@H]2CCCN(c3cnc(C(N)=O)c(Nc4ccc(N5CCC(CN6CCc7ccc8c(C9CCC(=O)NC9=O)noc8c7CC6)CC5)cc4)n3)C2)C1=O (some centres unmarked) [Compound 27] | 56.0 | 9.33 | 1.4 | 1760 | 2.4 | 7690 | 766 | 44.0 |  | pIC50 ([2]; 72 h): 10.21
2 | CN1CCN([C@@H]2CCCN(c3cnc(C(N)=O)c(Nc4ccc(C5CCN(C6CN(c7ccc8c(C9CCC(=O)NC9=O)noc8c7)C6)CC5)cc4)n3)C2)C1=O (some centres unmarked) [Compound 10] |  | 2.65 | 1.6 | 6140 | 2.9 | 35600 | 3850 | 57.98 | 65.4 | pIC50 (TMD8-BTK(C481S) cells): 8.62; TGI d 17 (TMD-8 xenograft tumors; 16 days, tumor weight on day 17): 97.5%; TV on d 0 Mean ± SD (TMD-8 xenograft tumors; day 0 (baseline at grouping)): 226 ± 29 mm^3; TV on d 12 Mean ± SD (TMD-8 xenograft tumors; day 12): 235 ± 57 mm^3; TV on d 15 Mean ± SD (TMD-8 xenograft tumors; day 15): 209 ± 60 mm^3
3 | CN1CCN([C@@H]2CCCN(c3cnc(C(N)=O)c(Nc4ccc(C5CCC(N6Cc7ccc8c(C9CCC(=O)NC9=O)noc8c7C6)CC5)cc4)n3)C2)C1=O (some centres unmarked) [Compound 33] | 55.0 |  |  |  |  |  |  | 26.0 | 71.0 | pIC50 [2]: 9.43; AUC (Mouse pharmacokinetics; Mouse i.g. 10 mpk): 20971 ng·h/mL; Cmax (Mouse pharmacokinetics; Mouse i.g. 10 mpk): 1555 ng/mL; t1/2 (Mouse pharmacokinetics; Mouse i.g. 10 mpk): 3.2 h; AUC (Mouse pharmacokinetics; Mouse i.v. 1 mpk): 7987 ng·h/mL; Cl (Mouse pharmacokinetics; Mouse i.v. 1 mpk): 2.17 mL/min/kg; t1/2 (Mouse pharmacokinetics; Mouse i.v. 1 mpk): 2.6 h
